Test results taken from ChEMBL document CHEMBL1145177, “Further naphthylcombretastatins. An investigation on the role of the naphthalene moiety” (J Med Chem, 2005).

Experiments:
[1] = tested on: HT-29; assay: Inhibitory concentration value against human colon adenocarcinoma HT-29 tumor cell line; type: functional, cell-based
[2] = tested on: SK-MEL-28; assay: Inhibitory concentration value against human MEL-28 tumor cell line; type: functional, cell-based
[3] = tested on: P388; assay: Inhibitory concentration value against murine P-388 tumor cell line; type: functional, cell-based; details: Mus musculus
[4] = tested on: A549; assay: Inhibitory concentration value against human A-549 tumor cell line; type: functional, cell-based
[5] = tested on: HCT-116; assay: Inhibitory concentration value against human colon carcinoma H-116 tumor cell line; type: functional, cell-based
[6] = biological target: Tubulin beta chain (Bos taurus, UniProt Q6B856); assay: In vitro inhibitory concentration value against bovine brain tubulin polymerization
Sequence of Tubulin beta chain (Q6B856 whole entry): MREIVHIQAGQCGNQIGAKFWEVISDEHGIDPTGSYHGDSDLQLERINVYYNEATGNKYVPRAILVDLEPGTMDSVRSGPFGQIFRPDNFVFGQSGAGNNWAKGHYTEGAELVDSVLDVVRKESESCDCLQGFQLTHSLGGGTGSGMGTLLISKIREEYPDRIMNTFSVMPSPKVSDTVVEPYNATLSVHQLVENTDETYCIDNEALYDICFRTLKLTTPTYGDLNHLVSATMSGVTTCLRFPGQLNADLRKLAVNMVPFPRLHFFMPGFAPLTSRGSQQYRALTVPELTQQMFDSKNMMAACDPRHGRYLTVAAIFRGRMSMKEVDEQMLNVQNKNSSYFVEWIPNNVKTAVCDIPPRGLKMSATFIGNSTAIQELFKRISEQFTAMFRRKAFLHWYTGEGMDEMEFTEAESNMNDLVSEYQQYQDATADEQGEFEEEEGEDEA

[7] = Inhibitory concentration value against human MEL-28 or human cancer HeLa tumor cell line; type: functional, cell-based
[8] = tested on: HL-60; assay: Inhibitory concentration value against human colon carcinoma H-116 or human cancer HL-60 tumor cell line; type: functional, cell-based

| SMILES | IC50 [1] [µM] | IC50 [2] [µM] | IC50 [3] [µM] | IC50 [4] [µM] | IC50 [5] [µM] | IC50 [6] [µM] | IC50 [7] [µM] | IC50 [8] [µM] |
| --- | --- | --- | --- | --- | --- | --- | --- | --- |
| COc1cc(/C=C\c2ccc3ccccc3c2)ccc1F | 0.45 | 0.45 | 0.45 | 0.45 | 0.45 | > 30 |  |  |
| COc1cc(/C=C\c2ccc3ccccc3c2)cc(OC)c1OC [NAPHTHYLCOMBRETASTATIN] |  | 0.02 | 0.02 |  | 0.02 | 10 | 0.02 | > 5 |
| COc1cc(/C=C/c2ccc3ccccc3c2)cc(OC)c1OC | 0.39 | 0.39 | 0.39 | 0.39 | 0.39 |  | 0.39 | 0.39 |
| COc1cc(CCc2ccc3ccccc3c2)cc(OC)c1OC | 0.31 | 0.31 | 0.31 | 0.31 | 0.31 |  | 0.31 | 0.31 |
| COc1cc(/C=C\c2ccc3c(ccn3C)c2)cc(OC)c1OC |  |  |  |  |  | 2 | 0.25 | 0.33 |
| COc1cc(/C=C/c2ccc3c(ccn3C)c2)cc(OC)c1OC |  |  |  |  |  | 30 | 0.024 | 0.027 |
| COc1c([N+](=O)[O-])cc(/C=C/c2ccc3ccccc3c2)cc1[N+](=O)[O-] | > 5 |  | > 5 | > 5 |  |  | > 5 | > 5 |
| CN(C)c1c([N+](=O)[O-])cc(/C=C/c2ccc3ccccc3c2)cc1[N+](=O)[O-] | > 5 |  | > 5 | > 5 |  |  | > 5 | > 5 |
| COc1cc(/C=C/c2ccc3ccccc3c2)cc(N)c1OC | 6 |  |  | 2.15 |  | > 40 | 0.46 | 3.15 |
| COc1cc(/C=C\c2c[nH]c3ccccc23)cc(OC)c1OC | 3.23 |  | 3.23 | 3.23 |  |  | 3.23 | 3.23 |
| COc1cc2ccc(CCc3ccc4ccccc4c3)cc2cc1O | 3.59 | 3.59 | 3.59 | 3.59 | 3.59 |  | 3.59 | 3.59 |
| COc1cc(/C=C\c2cn(C)c3ccccc23)cc(OC)c1OC | 3.09 |  | 3.09 | 3.09 |  |  | 3.09 | 3.09 |
| COc1cc(/C=C\c2ccc(N(C)C)c(N)c2)cc(OC)c1OC | 0.004 |  |  | 0.004 |  | > 30 | 0.003 | 0.003 |
| CN(C)c1c([N+](=O)[O-])cc(/C=C\c2ccc3ccccc3c2)cc1[N+](=O)[O-] | 2.75 |  | > 5 | > 5 |  |  | > 5 | 2.75 |
| COc1cc(/C=C/c2ccc(N(C)C)c([N+](=O)[O-])c2)cc(OC)c1OC | > 5 |  | > 5 | > 5 |  |  | > 5 | > 5 |
| COc1cccc(/C=C\c2ccc3ccccc3c2)c1 | 1.92 | 1.92 | 1.92 | 1.92 | 1.92 | > 30 |  |  |
| COc1cc(/C=C/c2occc2C)cc(OC)c1OC | 3.65 |  | 3.65 | 3.65 |  |  | 3.65 | 3.65 |
| COc1c(N)cc(/C=C/c2ccc3ccccc3c2)cc1N | > 5 |  | > 5 | > 5 |  |  | > 5 | > 5 |
| COc1cc(/C=C/c2c[nH]c3ccccc23)cc(OC)c1OC | 3.23 |  | 3.23 | 3.23 |  |  | 3.23 | 3.23 |
| COc1cc(/C=C\c2ccc(N(C)C)c([N+](=O)[O-])c2)cc(OC)c1OC | > 5 |  | > 5 | > 5 |  |  | > 5 | > 5 |
| COc1cc(/C=C/c2cn(C(C)=O)c3ccccc23)cc(OC)c1OC | > 5 |  | > 5 | > 5 |  |  | > 5 | > 5 |
| COc1ccc(/C=C\c2ccc3ccccc3c2)cc1O | 0.032 | 0.003 | 0.003 | 0.003 | 0.016 | 3 | 0.003 | 0.016 |

Results, then the molecule that gave them:

| IC50 [1] [µM] | IC50 [2] [µM] | IC50 [3] [µM] | IC50 [4] [µM] | IC50 [5] [µM] | IC50 [6] [µM] | IC50 [7] [µM] | IC50 [8] [µM] | SMILES |
| --- | --- | --- | --- | --- | --- | --- | --- | --- |
| 0.035 |  |  | 0.39 |  | 25 | 0.034 | 0.035 | COc1cc(/C=C\c2ccc3[nH]ccc3c2)cc(OC)c1OC |
| 0.42 |  |  | 0.59 |  | 13 | 0.11 | 0.34 | COc1cc(/C=C\c2ccc3ccccc3c2)cc([N+](=O)[O-])c1OC |
| > 5 |  | > 5 | > 5 |  |  | > 5 | > 5 | COc1cc(/C=C\c2ccc3c(ccn3S(=O)(=O)c3ccccc3)c2)cc(OC)c1OC |
| 0.45 |  |  | 0.53 |  | > 30 | 0.33 | 0.34 | COc1cc(/C=C/c2ccc3c(c2)c2ccccc2n3C)cc(OC)c1OC |
| 0.28 |  |  | 0.47 |  | > 30 | 0.25 | 0.38 | COc1cc(/C=C/c2ccc3[nH]ccc3c2)cc(OC)c1OC |
| > 10 |  |  | > 10 |  | > 40 | 3.2 | > 10 | COc1cc(/C=C/c2ccc3ccccc3c2)cc([N+](=O)[O-])c1OC |
| 3.62 | 3.62 | 3.62 | 3.62 | 3.62 |  | 3.62 | 3.62 | COc1ccc(/C=C/c2cc(OC)c3ccccc3c2)cc1O |
| > 5 |  | > 5 | > 5 |  |  | > 5 | > 5 | COc1cc(/C=C/c2ccc3c(ccn3S(=O)(=O)c3ccccc3)c2)cc(OC)c1OC |
| > 5 |  | > 5 | > 5 |  |  | > 5 | 2.88 | COc1cc(/C=C/c2ccc3ccccc3c2)cc(NC(C)=O)c1OC |
| 3.62 | 0.04 | 0.04 | 0.04 | 0.04 | 16 | 0.04 | 3.62 | COc1ccc(/C=C\c2cc(OC)c3ccccc3c2)cc1O |
| > 10 |  |  | > 10 |  | 6 | 3.1 | > 10 | COc1cc(/C=C\c2ccc3c(c2)c2ccccc2n3C)cc(OC)c1OC |
| 0.33 |  | 1.64 | 1.64 |  |  | 1.64 | 0.33 | COc1cc(/C=C\c2ccc3ccccc3c2)cc(N)c1OC |
